Among the data in patent publication US8153818B2, “Triazolyl phenyl benzenesulfonamides” (ChemoCentryx, Inc., priority 2006, dated 2012) are IC50 values, retold here.

For this assay, the target named is T1, CCR9 (Homo sapiens, UniProt P51686).
T1 construct: chemokine expressing cells (such as THP-1 cells for CCR2 assay or MOLT-4 cells for CCR9 assay); host or cells: MOLT-4
T1 sequence (P51686 1-369): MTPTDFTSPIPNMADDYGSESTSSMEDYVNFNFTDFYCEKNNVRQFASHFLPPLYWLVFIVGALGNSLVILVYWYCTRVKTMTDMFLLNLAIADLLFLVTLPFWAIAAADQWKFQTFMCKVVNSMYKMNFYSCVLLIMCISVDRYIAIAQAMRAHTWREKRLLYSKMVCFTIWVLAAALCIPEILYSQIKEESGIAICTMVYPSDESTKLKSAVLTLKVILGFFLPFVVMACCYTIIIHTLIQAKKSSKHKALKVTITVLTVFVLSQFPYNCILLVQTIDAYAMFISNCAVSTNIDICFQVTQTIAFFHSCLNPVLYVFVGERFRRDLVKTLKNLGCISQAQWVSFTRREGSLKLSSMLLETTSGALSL
In words: CCR9 activity in one of the chemotaxis, binding or calcium mobilization assays. In kind it is cell-based. As to conditions: assay not specified per compound. On the procedure: Conventional migration assay was used to determine the efficacy of potential receptor antagonists in blocking migration mediated through chemokines (such as CCR2 or CCR9). This assay was routinely performed using the ChemoTX® microchamber system with a 5-μm pore-sized polycarbonate membrane. To begin such an assay, chemokine expressing cells (such as THP-1 cells for CCR2 assay or MOLT-4 cells for CCR9 assay) were harvested by centrifugation of cell suspension at 1000 RPM on a GS-6R Beckman centrifuge. The cell pellet was resuspended in chemotaxis buffer (HBSS with 0.1% BSA) at 10×10^6 cells/mL for CCR2 assay (5×10^6 cells/mL for CCR9 assay). Test compounds at desired concentrations were prepared from 10 mM stock solutions by serial dilutions in chemotaxis buffer. An equal volume of cells and compounds were mixed and incubated at room temperature for 15 minutes. Afterwards, 20 μL of the mixture was transferred onto the porous membrane of a migration microchamber, with 29 μL of chemokine ligand (0.1 nM chemokine MCP-1 protein for CCR2 assay or […] chemokine TECK protein for CCR9 assay) placed at the lower chamber. Following an incubation at 37° C. (90-minute for CCR2; 150-minute for CCR9), during which cells migrated against the chemokine gradient, the assay was terminated by removing the cell drops from atop the filter. To quantify cells migrated across the membrane, 5 μL of 7×CyQUANT® solution was added to each well in the lower chamber, and the fluorescence signal measured on a Spectrafluor Plus fluorescence plate reader (TECAN, Durham, N.C.). The degree of inhibition was determined by comparing migration signals between compound-treated and untreated cells. IC50 calculation was further performed by non-linear squares regression analysis using Graphpad Prism (Graphpad Software, San Diego, Calif.).
Calcium flux assay measures an increase in intracellular calcium following ligand-induced receptor activation. In the screen of chemokine antagonists, it was used as a secondary assay carried out on a FLIPR® machine (Molecular Devices, Mountain View, Calif.). To begin an assay, chemokine expressing cells (such as THP-1 cells for CCR2 assay or MOLT-4 cells for CCR9 assay) were harvested by centrifugation of cell suspension, and resuspended to 1.5×10^6 cells/mL in HBSS (with 1% fetal calf serum). Cells were then labeled with a calcium indicator dye Fluo-4 AM for 45 minutes at 37° C. with gentle shaking. Following incubation, cells were pelletted, washed once with HBSS and resuspended in the same buffer at a density of 1.6×10^6 cells/mL. One hundred microliters of labeled cells were mixed with 10 μL of test compound at the appropriate concentrations on an assay plate. Chemokine protein (MCP-1 at a final concentration of 0.1 nM for CCR2 assay or TECK at a final concentration of 25 nM for CCR9 assay) to activate the receptor. The degree of inhibition was determined by comparing calcium signals between compound-treated and untreated cells. IC50 calculations were further performed by non-linear squares regression analysis using Graphpad Prism (Graphpad Software, San Diego, Calif.). […]
In the tables below, structures and activity are provided for representative compounds described herein. Activity is provided as follows for either or both of the chemotaxis assay and/or calcium mobilization assays, described above.
For orientation: Calcium flux is commonly read through the fluorescence of an indicator in the cells.

SMILES strings stand for the structures. Bounds are passed on as bounds.

Regarding `CCn1c(-c2cc(Cl)ccc2NS(=O)(=O)c2ccc(C(C)(C)C)cc2)nnc1C(C)C` [Compound 43, 4-tert-butyl-N-(4-chloro-2-(4-ethyl-5-isopropyl-4H-1,2,4-triazol-3-yl)phenyl)benzenesulfonamide], the IC50 is less than 1000 nM.

Consider `COCc1nnc(-c2cc(Cl)ccc2NS(=O)(=O)c2ccc(C(C)(C)C)cc2)n1C(C)C` [Compound 96, 4-tert-butyl-N-(4-chloro-2-(4-isopropyl-5-(methoxymethyl)-4H-1,2,4-triazol-3-yl)phenyl)benzenesulfonamide], for which the IC50 is less than 1000 nM.

For `Cn1c(CC(C)(C)O)nnc1-c1cc(Cl)c(F)cc1NS(=O)(=O)c1ccc(C(C)(C)C)cc1` [Compound 65, 4-tert-butyl-N-(4-chloro-5-fluoro-2-(5-(2-hydroxy-2-methylpropyl)-4-methyl-4H-1,2,4-triazol-3-yl)phenyl)benzenesulfonamide], the IC50 is less than 1000 nM.

Turning to `COCc1nnc(-c2cc(Cl)c(F)cc2NS(=O)(=O)c2ccc(C(C)(C)C)cc2)n1C(C)C` [Compound 51, 4-tert-butyl-N-(4-chloro-5-fluoro-2-(4-isopropyl-5-(methoxymethyl)-4H-1,2,4-triazol-3-yl)phenyl)benzenesulfonamide], the IC50 is less than 1000 nM.

Regarding `CC(C)(C)c1ccc(S(=O)(=O)Nc2ccc(Cl)cc2-c2nncn2[C@H]2CCN(S(C)(=O)=O)C2)cc1` [Compound 153], the IC50 was less than 1000 nM.

For `CC(C)NCc1nnc(-c2cc(Cl)c(F)cc2NS(=O)(=O)c2ccc(C(C)(C)C)cc2)n1C` [Compound 49, 4-tert-butyl-N-(4-chloro-5-fluoro-2-(5-((isopropylamino)methyl)-4-methyl-4H-1,2,4-triazol-3-yl)phenyl)benzenesulfonamide], the IC50 is less than 1000 nM.

Take `CN1CCN(Cc2nnc(-c3cc(Cl)c(F)cc3NS(=O)(=O)c3ccc(C(C)(C)C)cc3)n2C)CC1` [Compound 151]: the IC50 is less than 1000 nM.

As to `CCn1c(-c2cc(Cl)c(F)cc2NS(=O)(=O)c2ccc(C(C)(C)C)cc2)nnc1C(C)C` [Compound 87, 4-tert-butyl-N-(4-chloro-2-(4-ethyl-5-isopropyl-4H-1,2,4-triazol-3-yl)-5-fluorophenyl)benzenesulfonamide], the IC50 was less than 1000 nM.

With `C[C@H](O)c1nnc(-c2cc(Cl)c(F)cc2NS(=O)(=O)c2ccc(C(C)(C)C)cc2)n1C` [Compound 60], the IC50 is less than 1000 nM.

Regarding `CCn1c(C)nnc1-c1cc(F)c(F)cc1NS(=O)(=O)c1ccc(C(C)(C)C)cc1` [Compound 71, 4-tert-butyl-N-(2-(4-ethyl-5-methyl-4H-1,2,4-triazol-3-yl)-4,5-difluorophenyl)benzenesulfonamide], the IC50 is less than 1000 nM.

Regarding `Cc1ocnc1-c1nnc(-c2cc(Cl)ccc2NS(=O)(=O)c2ccc(C(C)(C)C)cc2)n1C` [Compound 117], the IC50 is less than 1000 nM.

Turning to `Cc1nnc(-c2ccc(Cl)cc2NS(=O)(=O)c2ccc(C(C)(C)C)cc2)n1C(C)C` [Compound 95, 4-tert-butyl-N-(5-chloro-2-(4-isopropyl-5-methyl-4H-1,2,4-triazol-3-yl)phenyl)benzenesulfonamide], the IC50 is less than 1000 nM.

With `COCCc1nnc(-c2cc(Cl)ccc2NS(=O)(=O)c2ccc(C(C)(C)C)cc2)n1C` [Compound 41, 4-tert-butyl-N-(4-chloro-2-(5-(2-methoxyethyl)-4-methyl-4H-1,2,4-triazol-3-yl)phenyl)benzenesulfonamide], the IC50 is less than 1000 nM.

Regarding `CCc1nnc(-c2cc(C(N)=O)ccc2NS(=O)(=O)c2ccc(C(C)(C)C)cc2)n1C` [Compound 129, 4-(4-tert-butylphenylsulfonamido)-3-(5-ethyl-4-methyl-4H-1,2,4-triazol-3-yl)benzamide], the IC50 was less than 1000 nM.

For `Cc1nnc(-c2cc(F)c(F)cc2NS(=O)(=O)c2ccc(C(C)(C)C)cc2)n1C` [Compound 100, 4-tert-butyl-N-(2-(4,5-dimethyl-4H-1,2,4-triazol-3-yl)-4,5-difluorophenyl)benzenesulfonamide], the IC50 was less than 1000 nM.

Consider `CO[C@@H](C)c1nnc(-c2cc(Cl)c(F)cc2NS(=O)(=O)c2ccc(C(C)(C)C)cc2)n1C` [Compound 139], for which the IC50 was less than 1000 nM.

Consider `CCc1nnc(-c2cc(C(=O)O)ccc2NS(=O)(=O)c2ccc(C(C)(C)C)cc2)n1C` [Compound 130, 4-(4-tert-butylphenylsulfonamido)-3-(5-ethyl-4-methyl-4H-1,2,4-triazol-3-yl)benzoic acid], for which the IC50 is less than 1000 nM.

For the molecule `Cn1c(-c2cc(Cl)c(F)cc2NS(=O)(=O)c2ccc(C(C)(C)C)cc2)nnc1[C@H]1CCCN1` [Compound 140], the IC50 was less than 1000 nM.

Turning to `Cc1nnc(-c2cc(F)c(F)cc2NS(=O)(=O)c2ccc(C(C)(C)C)cc2)n1[C@H]1CCNC1` [Compound 77, (S)-4-tert-butyl-N-(4,5-difluoro-2-(5-methyl-4-(pyrrolidin-3-yl)-4H-1,2,4-triazol-3-yl)phenyl)benzenesulfonamide], the IC50 was less than 1000 nM.

`COCCn1cnnc1-c1cc(Cl)c(F)cc1NS(=O)(=O)c1ccc(C(C)(C)C)cc1` [Compound 136, 4-tert-butyl-N-(4-chloro-5-fluoro-2-(4-(2-methoxyethyl)-4H-1,2,4-triazol-3-yl)phenyl)benzenesulfonamide]: the IC50 was less than 1000 nM.

Consider `Cn1c(CNC2CC2)nnc1-c1cc(Cl)c(F)cc1NS(=O)(=O)c1ccc(C(C)(C)C)cc1` [Compound 50, 4-tert-butyl-N-(4-chloro-2-(5-((cyclopropylamino)methyl)-4-methyl-4H-1,2,4-triazol-3-yl)-5-fluorophenyl)benzenesulfonamide], for which the IC50 is less than 1000 nM.

As to `Cc1nnc(-c2cc(Cl)ccc2NS(=O)(=O)c2ccc(C(C)(C)C)cc2)n1C1CCN(C)CC1` [Compound 155], the 50% inhibitory concentration (IC50) was less than 1000 nM.

Take `CC(C)(C)c1ccc(S(=O)(=O)Nc2ccc(Cl)cc2-c2nncn2C2CCOC2)cc1` (stereo not shown) [Compound 35]: the IC50 is less than 1000 nM.

Regarding `Cc1nnc(-c2cc(Cl)ccc2NS(=O)(=O)c2ccc(C(C)(C)C)cc2)n1[C@H]1CCNC1` [Compound 127], the IC50 is less than 1000 nM.

For the molecule `CC(C)(C)c1ccc(S(=O)(=O)Nc2ccc(Cl)cc2-c2nncn2[C@H]2CCCNC2)cc1` [Compound 113], the IC50 was less than 1000 nM.

For `Cn1c(-c2cc(Cl)ccc2NS(=O)(=O)c2ccc(C(C)(C)C)cc2)nnc1C1CCNCC1` [Compound 70], the IC50 was less than 1000 nM.

As for `CCc1nnc(-c2cc(Cl)ccc2NS(=O)(=O)c2ccc(C(C)(C)C)cc2)n1[C@H]1CCNC1` [Compound 119, (S)-4-tert-butyl-N-(4-chloro-2-(5-ethyl-4-(pyrrolidin-3-yl)-4H-1,2,4-triazol-3-yl)phenyl)benzenesulfonamide], the IC50 is less than 1000 nM.

Regarding `CC(C)c1nnc(-c2cc(Cl)c(F)cc2NS(=O)(=O)c2ccc(C(C)(C)C)cc2)n1[C@H]1CCNC1` [Compound 146], the IC50 is less than 1000 nM.

Consider `CC(C)c1nnc(-c2cc(Cl)ccc2NS(=O)(=O)c2ccc(C(C)(C)C)cc2)n1[C@H]1CCNC1` [Compound 118, (S)-4-tert-butyl-N-(4-chloro-2-(5-isopropyl-4-(pyrrolidin-3-yl)-4H-1,2,4-triazol-3-yl)phenyl)benzenesulfonamide], for which the IC50 was less than 1000 nM.

In the case of `Cn1c(-c2cc(Cl)c(F)cc2NS(=O)(=O)c2ccc(C(C)(C)C)cc2)nnc1C1CCOCC1` [Compound 116], the IC50 was less than 1000 nM.

`Cn1c(CN2CCCC2)nnc1-c1cc(Cl)c(F)cc1NS(=O)(=O)c1ccc(C(C)(C)C)cc1` [Compound 121]: the IC50 is less than 1000 nM.

As usually defined, the IC50 is the concentration needed to halve the response being measured.
